This experiment addresses T1, human TREM2 (Homo sapiens, UniProt Q9NZC2).
T1 construct: expressed in transfected cells; host or cells: HEK293T
Briefly: TREM2 agonist potency by cellular phosphorylation of Syk (AlphaLisa) in HEK293T-hTREM2 cells. The format is cell-based. The gist of the method: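 Agonist EC50 from a variable-slope four-parameter fit of % activation, based on AlphaLisa phospho-Syk levels in lysates. Cells: HEK293T-hTREM2 (with DAP12), treated 45 min at room temperature with compound in assay buffer.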

Setting [1] is: HEK293 cells expressing human TREM2 and DAP12, Table D.
[2] abbreviates: HEK293 cells expressing human TREM2 and DAP12, Table D-2.

Each structure is given as a SMILES string.

T1 sequence (Q9NZC2 19-230): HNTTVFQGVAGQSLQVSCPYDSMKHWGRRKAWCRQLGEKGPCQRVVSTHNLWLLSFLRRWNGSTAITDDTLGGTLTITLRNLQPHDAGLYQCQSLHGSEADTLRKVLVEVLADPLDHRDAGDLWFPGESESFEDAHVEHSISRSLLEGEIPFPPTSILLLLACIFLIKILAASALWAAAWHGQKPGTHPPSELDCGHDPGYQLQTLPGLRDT
T1 sequence (O43914 22-113 partner): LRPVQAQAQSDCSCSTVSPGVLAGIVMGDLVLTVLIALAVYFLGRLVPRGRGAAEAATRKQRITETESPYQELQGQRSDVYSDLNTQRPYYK

Take `Cc1nc2nc(N3CCO[C@H](c4cc[nH]c(=O)c4)C3)nc(C34CC(C(F)(F)F)(C3)C4)c2nc1C` [Example 199, (R)-4-(4-(6,7-dimethyl-4-(3-(trifluoromethyl)bicyclo[1.1.1]pentan-1-yl)pteridin-2-yl)morpholin-2-yl)pyridin-2(1H)-one]: under setting [1], the EC50 is 50 to 500 nM.
On the same count and under the same terms, next, `Cc1nc2nc(-c3ccc(Cl)cc3F)cc(C3CCO[C@@H](c4cnn(C5CC5)c4)C3)c2nc1C` (stereo partly drawn) [Example 235, 6-(4-chloro-2-fluorophenyl)-8-((2R)-2-(1-cyclopropyl-1H-pyrazol-4-yl)tetrahydro-2H-pyran-4-yl)-2,3-dimethylpyrido[2,3-b]pyrazine]: less than 50 nM; `Cc1nc2cc([C@@H]3CCO[C@H](c4cnn(C5CC5)c4)C3)cc(-c3ccc(Cl)cc3F)c2nc1C` [Example 227, 5-(4-chloro-2-fluorophenyl)-7-((2S,4R)-2-(1-cyclopropyl-1H-pyrazol-4-yl)tetrahydro-2H-pyran-4-yl)-2,3-dimethylquinoxaline]: 500 to 3000 nM.
For the compound `Cc1nc2cc([C@H]3CCO[C@@H](c4cnn(C5CC5)c4)C3)nc(-c3ccc(F)cc3F)c2nc1CO` [Example I-1119, (7-((2R,4S)-2-(1-cyclopropyl-1H-pyrazol-4-yl)tetrahydro-2H-pyran-4-yl)-5-(2,4-difluorophenyl)-2-methylpyrido[3,4-b]pyrazin-3-yl)methanol], the 50% effective concentration (EC50) under setting [2] lay within 50 to 500 nM.
Regarding `Cc1nc2nc(N3CCN(C)[C@@H](c4cnn(C5CC5)c4)C3)nc(-c3ccc(Cl)cc3F)c2nc1C` [Example 206, (S)-4-(4-chloro-2-fluorophenyl)-2-(3-(1-cyclopropyl-1H-pyrazol-4-yl)-4-methylpiperazin-1-yl)-6,7-dimethylpteridine], the EC50 under setting [1] is 50 to 500 nM.
For the compound `Cc1cnc2c(C34CC(C)(C3)C4)nc([C@H]3C[C@@H](C)O[C@@H](c4cnn(C5CC5)c4)C3)nc2n1` [Example 151, 2-((2R,4S,6R)-2-(1-cyclopropyl-1H-pyrazol-4-yl)-6-methyltetrahydro-2H-pyran-4-yl)-7-methyl-4-(3-methylbicyclo[1.1.1]pentan-1-yl)pteridine], under setting [1], the concentration for a half-maximal effect (EC50) is 500 to 3000 nM.
In turn, `Cc1nc2nc(N3C[C@@H](c4cnn(C(F)F)c4)O[C@@H](C4CC4)C3)nc(-c3ccc(C(F)(F)F)cc3F)c2nc1C` [Example I-1712, (2S,6R)-2-cyclopropyl-6-[1-(difluoromethyl)pyrazol-4-yl]-4-[4-[2-fluoro-4-(trifluoromethyl)phenyl]-6,7-dimethyl-pteridin-2-yl]morpholine] gave an EC50 under setting [2] of 50 to 500 nM.
Still for that read-out and setting: as for `Cc1nc2nc([C@H]3CCO[C@@H](c4cnn(C5CC5)c4)C3)nc(-c3ccc(F)cc3F)c2nc1C(F)F` [Example I-1323, 2-[(2R,4S)-2-(1-cyclopropylpyrazol-4-yl)tetrahydropyran-4-yl]-6-(difluoromethyl)-4-(2,4-difluorophenyl)-7-methyl-pteridine], the figure is less than 50 nM.
Turning to `Cc1cc([C@@H]2C[C@H](c3cc(-c4ccc(Cl)c(F)c4F)c4cc(C)c(C)nc4n3)CCO2)ccn1` [Example 187, 5-(4-chloro-2,3-difluorophenyl)-2,3-dimethyl-7-((2S,4R)-2-(2-methylpyridin-4-yl)tetrahydro-2H-pyran-4-yl)-1,8-naphthyridine], the 50% effective concentration (EC50) under setting [1] was less than 50 nM.
For the compound `Cc1nc2nc([C@H]3CCO[C@@H](c4cnn(C5CC5)c4)C3)nc(-c3ccc(F)cc3F)c2nc1C1CCCCC1` [Example I-1744, 6-cyclohexyl-2-((2R,4S)-2-(1-cyclopropyl-1H-pyrazol-4-yl)tetrahydro-2H-pyran-4-yl)-4-(2,4-difluorophenyl)-7-methylpteridine], the EC50 under setting [2] is 50 to 500 nM.
In turn, `[2H]C([2H])([2H])c1nc2nc([C@@H]3CCO[C@H](c4ccnc(C)c4)C3)nc(-c3ccc(Cl)c(F)c3F)c2nc1C([2H])([2H])[2H]` [Example 136, 4-(4-chloro-2,3-difluorophenyl)-6,7-bis(methyl-d3)-2-((2S,4R)-2-(2-methylpyridin-4-yl)tetrahydro-2H-pyran-4-yl)pteridine] displayed an EC50 under setting [1] of less than 50 nM.
Same read-out and setting: next, `Cc1nc2nc([C@@H]3CCO[C@H](c4cccn(C)c4=O)C3)nc(-c3ccc(F)cc3F)c2nc1C` [Example 204]: 500 to 3000 nM.
With `COC1(c2nc(-c3ccc(Cl)cc3F)c3nc(C)c(C)nc3n2)CCO[C@@H](c2cnn(C3CC3)c2)C1` (stereo partly drawn) [Example I-1210, 4-(4-chloro-2-fluorophenyl)-2-((2R)-2-(1-cyclopropyl-1H-pyrazol-4-yl)-4-methoxytetrahydro-2H-pyran-4-yl)-6,7-dimethylpteridine], under setting [2], the EC50 was in the range of 500 to 3000 nM.
Same read-out and setting: as for `Cc1nc2nc(N3C[C@@H](C)O[C@@H](c4cnn(C(F)F)c4)C3)nc(-c3ccc(F)cc3F)c2nc1C` [Example I-1472, (2S,6R)-2-[1-(difluoromethyl)pyrazol-4-yl]-4-[4-(2,4-difluorophenyl)-6,7-dimethyl-pteridin-2-yl]-6-methyl-morpholine], the figure is less than 50 nM.
Regarding `CCc1nc2c(-c3ccc(F)cc3F)nc([C@H]3CCO[C@@H](c4cnn(C5CC5)c4)C3)cc2nc1C` [Example I-1557, 7-((2R,4S)-2-(1-cyclopropyl-1H-pyrazol-4-yl)tetrahydro-2H-pyran-4-yl)-5-(2,4-difluorophenyl)-3-ethyl-2-methylpyrido[3,4-b]pyrazine], the EC50 under setting [2] was 50 to 500 nM.
Turning to `Cc1nc2c(-c3ccc(Cl)cc3F)nc([C@H]3CCO[C@@H](c4cnn(C5CC5)c4)C3)nc2nc1CC(F)F` [Example I-1477, 4-(4-chloro-2-fluoro-phenyl)-2-[(2R,4S)-2-(1-cyclopropylpyrazol-4-yl)tetrahydropyran-4-yl]-7-(2,2-difluoroethyl)-6-methyl-pteridine], the concentration giving a half-maximal response (EC50) under setting [2] lay within 50 to 500 nM.
In turn, `COc1ccc([C@@H]2C[C@H](c3nc(-c4ccc(F)cc4F)c4nc(C)c(C)nc4n3)CCO2)cn1` [Example 162, 4-(2,4-difluorophenyl)-2-((2S,4R)-2-(6-methoxypyridin-3-yl)tetrahydro-2H-pyran-4-yl)-6,7-dimethylpteridine] returned an EC50 under setting [1] of 50 to 500 nM.
Consider `Cc1nc2nc(N3C[C@@H](C)O[C@@H](c4cnn(C)c4)C3)nc(-c3ccc(F)cc3F)c2nc1C` [Example I-1633], for which the concentration for a half-maximal effect (EC50) under setting [2] is less than 50 nM.
Still for that read-out and setting: as for `Cc1nc2nc([C@H]3CCO[C@H](c4cnc(C5CC5)o4)C3)nc(-c3ccc(F)cc3F)c2nc1C` [Example I-1698, 2-cyclopropyl-5-[(2S,4S)-4-[4-(2,4-difluorophenyl)-6,7-dimethyl-pteridin-2-yl]tetrahydropyran-2-yl]oxazole], the figure is 50 to 500 nM.
Regarding `Cc1ccc(-c2nc(N3C[C@@H](C)O[C@@H](c4cnn(C5CC5)c4)C3)nc3nc(C)c(C)nc23)o1` [Example 243, (2S,6R)-2-(1-cyclopropyl-1H-pyrazol-4-yl)-4-(6,7-dimethyl-4-(5-methylfuran-2-yl)pteridin-2-yl)-6-methylmorpholine], the half-maximal effective concentration (EC50) under setting [1] lay within 50 to 500 nM.
Under setting [2], `Cc1nc2cc([C@H]3CCO[C@@H](c4cnn(C5CC5)c4)C3)nc(-c3ccc(F)cc3F)c2nc1COC(F)F` [Example I-1490, 7-((2R,4S)-2-(1-cyclopropyl-1H-pyrazol-4-yl)tetrahydro-2H-pyran-4-yl)-3-((difluoromethoxy)methyl)-5-(2,4-difluorophenyl)-2-methylpyrido[3,4-b]pyrazine] displayed an EC50 of 3000 to 100000 nM.
Turning to `COc1cccc([C@@H]2C[C@H](c3nc(C45CC(C(F)(F)F)(C4)C5)c4nc(C)c(C)nc4n3)CCO2)n1` [Example 145, 2-[ (2S,4R)-2-(6-methoxy-2-pyridyl)tetrahydropyran-4-yl] - 6,7-dimethyl-4-[3-(trifluoromethyl)-1-bicyclo[1.1.1]pentanyl]pteridine], the EC50 under setting [1] is 500 to 3000 nM.
Still for that read-out and setting: next, `Cc1nc2nc([C@H]3C[C@@H](C)O[C@@H](c4cnn(C5CC5)c4)C3)nc(-c3ccc(C(F)(F)F)cc3)c2nc1C` [Example 159, 2-((2R,4S,6R)-2-(1-cyclopropyl-1H-pyrazol-4-yl)-6-methyltetrahydro-2H-pyran-4-yl)-6,7-dimethyl-4-(4-(trifluoromethyl)phenyl) pteridine]: less than 50 nM; `Cc1cc([C@H]2C[C@@H](c3cc(-c4ccc(Cl)cc4F)c4cc(C)c(C)nc4n3)CCO2)ccn1` [Example 184, 5-(4-chloro-2-fluorophenyl)-2,3-dimethyl-7-((2R,4S)-2-(2-methylpyridin-4-yl)tetrahydro-2H-pyran-4-yl)-1,8-naphthyridine]: less than 50 nM; `Cc1cc([C@@H]2C[C@H](c3nc(-c4cc(F)c(Cl)c(F)c4)c4nc(C)c(C)nc4n3)CCO2)ccn1` [Example 132, 4-(4-chloro-3,5-difluorophenyl)-6,7-dimethyl-2-((2S,4R)-2-(2-methylpyridin-4-yl)tetrahydro-2H-pyran-4-yl)pteridine]: 3000 to 100000 nM.
As to `[2H]C1(n2cc([C@H]3C[C@@H](c4nc(-c5ccc(Cl)cc5F)c5nc(C)c(C)nc5n4)CCO3)cn2)CC1` [Example 179, 4-(4-chloro-2-fluorophenyl)-2-((2R,4S)-2-(1-(cyclopropyl-1-d)-1H-pyrazol-4-yl)tetrahydro-2H-pyran-4-yl)-6,7-dimethylpteridine], the EC50 under setting [1] was less than 50 nM.
Still for that read-out and setting: as for `Cc1nc2cc([C@H]3CCO[C@@H](c4cnn(C5CC5)c4)C3)cc(-c3ccc(F)cc3Cl)c2nc1C` [Example 229, 5-(2-chloro-4-fluorophenyl)-7-((2R,4S)-2-(1-cyclopropyl-1H-pyrazol-4-yl)tetrahydro-2H-pyran-4-yl)-2,3-dimethylquinoxaline], the figure is 50 to 500 nM.
The same measure, in the same setting: as for `[2H]C1([2H])C[C@H](c2nc(-c3ccc(Cl)cc3F)c3nc(C)c(C)nc3n2)C[C@]([2H])(c2cnn(C3CC3)c2)O1` [Example 192, 4-(4-chloro-2-fluorophenyl)-2-((2R,4S)-2-(1-cyclopropyl-1H-pyrazol-4-yl)tetrahydro-2H-pyran-4-yl-2,6,6-d3)-6,7-dimethylpteridine], the figure is less than 50 nM; as for `Cc1ccc2c(-c3ccc(C(F)(F)F)cc3)nc([C@H]3CCO[C@@H](c4cnn(C5CC5)c4)C3)nc2n1` [Example 217, 2-((2R,4S)-2-(1-cyclopropyl-1H-pyrazol-4-yl)tetrahydro-2H-pyran-4-yl)-7-methyl-4-(4-(trifluoromethyl)phenyl)pyrido [2,3-d]pyrimidine], less than 50 nM.

For the origin of these results see US20240309003A1, “HETEROCYCLIC COMPOUNDS AS TRIGGERING RECEPTOR EXPRESSED ON MYELOID CELLS 2 AGONISTS AND METHODS OF USE” (Vigil Neuroscience, Inc., priority 2021, published 2024).
